Entries after “also recorded” stand apart in the source; their conditions may differ. Structures can show the parent of a compound that is named as a salt.
Legend:
[1] = test system: normal human fibroblasts (Hfb); assay: MultiTox-Fluor cytotoxicity assay in normal human fibroblasts; type: cell-based
Procedure: Cell lines (HCT116, ht29, Rko, Hep3B, SW48, SW620, MDA-MB-231, PANC-1, su.86.86, Hfb) were obtained from the American Type Culture Collection (ATCC). Cell type authentication was carried out by microscope and DNA profiles using short tandem repeat analysis. Cells were grown in Minimum Essential Medium (MEM) containing 10% heat-inactivated Fetal Bovine Serum (FBS) or in Dulbecco's Modified Eagle's Medium (DMEM) containing 10% FBS, where specified, at 37° C. with 5% CO2. In general, the in-vitro experiments were carried out with 2. μM 0260 added into the growth medium. Dose response experiments included increasing 0260 concentrations. Cell death levels were determined using the MultiTox-Fluor Multiplex Cytotoxicity Assay (G9201, Promega, USA). In brief, 10,000 cells were seeded in black bottom 96 wells plate and were allowed to attach to the plate bottom for 16 h before the administration of various 0260 concentration in each well. Cell death levels were determined according to the manufacturer's protocol.
Cells death level was determined using the MultiTox-Fluor Multiplex Cytotoxicity Assay (G9201, Promega, USA) according to the manufacturer's protocol.

[2] = test system: Electron Transport Chain (ETC) complex I; assay: ETC Complex I activity assay in SW620 cells; type: cell-based, human
Procedure: SW620 cells were treated with 0260 for 4-22 h and the Complex I activity was determined for each period on incubation using the Complex I Enzyme Activity Microplate Assay Kit (Colorimetric) according to the manufacturer's instructions (ab109721).

Fer-PARP-1 complex = biological target: T1, Fer-PARP-1 complex (Homo sapiens, UniProt P16591); assay: Co-immunoprecipitation of Fer and PARP-1 from SW620 nuclear lysates; type: cell-based
T1 construct: endogenous in cells; host or cells: SW620 cells, nuclear lysates

MINK1 = MINK1 (Homo sapiens, UniProt Q8N4C8); assay: Kinase panel assay, MINK1; type: biochemical; conditions: above threshold
Procedure: (§1) Kinase panel assays were performed using the FRET-based Z′-LYTE, Lantha Screen and Adapta enzymatic kinase assay systems (Life Technologies, Carlsbad, Calif.), which were carried out using the SelectScreen Kinase Profiling Service (Life Technologies). The standard reaction contained 2 μM peptide substrate, ATP at the optimal assay concentration, 50 mM HEPES (pH 7.5), 0.01% Brij-35, 10 mM MgCl2, 1 mM EGTA, and the tested kinase. Each kinase was checked for its activity in duplicate data points (n=2) and was assayed following the detailed procedures outlined in the SelectScreen service. Percent inhibition or ATP displacement (For Lantha screen) represent a ratio of phosphorylated/ATP bound product formed in the presence of the compound compared with phosphorylated/ATP bound product formed in reactions containing 1% DMSO.
(§2) Kinome technique was used for monitoring phosphorylation events and phosphorylation targets of 0260-Fer interaction, using peptide arrays for human targets and phosphorylation-specific antibodies. Construction of peptide arrays relied on information from phosphorylation databases. The following proteins were determined as significant above the threshold of 40% kinase activity inhibition or ATP displacement to the Kinase domain site.

Hfb = assay: Mitochondrial membrane potential (TMRE) in normal human cells; type: cell-based
Procedure: (§3) For microscopic and ELISA based analyses of cells MMP, Tetra-Methyl-Rhodamine-Ethyl ester (TMRE) incorporation assay was carried out according to the manufacturer's instructions (Abcam, USA).

CC cells [3] = assay: Glycolysis rate (secreted lactate) in CC cells; type: cell-based, human; conditions: 12 h
Procedure: Cells were grown in MEM containing 1 gr/lit glucose or in DMEM with 4.5 gr/lit glucose. Secreted lactate levels were determined using Lactate Colorimetric Assay Kit II according to the manufacturer's protocol (Biovision, USA).

HKII = assay: Glycolysis enzyme levels in CC cells (WB, ICC); type: cell-based, human
Procedure: WB analyses were carried out as previously described before. In brief, cells were lysed in RIPA buffer mixed with protease inhibitors and separated on SDS-PAGE gel, transferred to PVDF membrane treated with 5% skim milk to exclude non-specific background and incubated with a primary antibody over-night. The membrane was incubated for 1 h with a secondary antibody conjugated to Horseradish Peroxidase (HRP). The protein-antibody complex was visualized using the SuperSignal West Pico Chemiluminescent Substrate (Thermo scientific, USA).
Cells were fixed with 4% paraformaldehyde (30 min) and incubated with Permeabilization Solution containing 0.1% Triton X-100 (Sigma-Aldrich, Israel) in PBS at room temperature for 1 h. Nonspecific binding was blocked with PBS containing 10% fetal bovine serum for 1 h at room temperature. Cells were incubated with specific antibodies diluted 1:100 overnight at 4° C. […] Bound primary antibodies were detected by Alexa Fluor® 488 goat anti-mouse IgG antibody or Alexa Fluor® 594 goat anti-rabbit IgG antibody (Molecular Probes, Invitrogen, U.K.). […] Nonspecific staining, as determined by binding to the secondary antibody only, was negligible. The immunostained slides were examined under the fluorescence microscope AxioimagerZ1 (Zeiss, Germany) or confocal fluorescence microscope (Olympus-FV1000).

[4] = Pharmacokinetic study in mice; type: in vivo; conditions: IP
Procedure: The investigation of PK properties of 0260 was carried out using 30 ICR/CD-1 mice. Intraperitoneal (IP) administration was used, and the solution was administered as 10 ml per 1 kg of animal body weight. At 5, 15, 30, 60, 120, and 240 min after administration (5 mice per each time point) mice were decapitated and blood samples were taken in EDTA-containing tubes. Plasma was prepared from the collected blood by centrifugation and then forwarded for LC-MS/MS analysis. A high sensitivity analytical method was developed for detection of 0260. Analysis was performed in the Agilent 1100 HPLC system including degasser, the binary pump, autosampler, and absorption detector with variable wavelength ranging between 190-600 nm. The HPLC system was coupled with the tandem mass spectrometer API 2000 (Applied Biosystems). The TurboIonSpray ion source was used in the positive ion mode. Data acquisition was performed with Analyst 1.3.1 software.

CC cells [5] = assay: Mitochondrial membrane potential (TMRE) in CC cells; type: cell-based, human; conditions: malignant cells
Procedure: as §3

MDA cells = assay: Autophagy in MDA cells (LC3 immuno-staining); type: cell-based, human; conditions: 2 μM
Procedure: Cells were fixed with 4% paraformaldehyde (30 min) and incubated with Permeabilization Solution containing 0.1% Triton X-100 (Sigma-Aldrich, Israel) in PBS at room temperature for 1 h. Nonspecific binding was blocked with PBS containing 10% fetal bovine serum for 1 h at room temperature. Cells were incubated with specific antibodies diluted 1:100 overnight at 4° C. Cells were washed (5 min) in PBS containing 0.2% Tween-20 (Sigma-Aldrich, Israel) to remove non-specific binding. Bound primary antibodies were detected by Alexa Fluor® 488 goat anti-mouse IgG antibody or Alexa Fluor® 594 goat anti-rabbit IgG antibody (Molecular Probes, Invitrogen, U.K.). Nuclei were visualized by incubation with Hoechst 33342 solution for 10 min (1:500). Nonspecific staining, as determined by binding to the secondary antibody only, was negligible. The immunostained slides were examined under the fluorescence microscope AxioimagerZ1 (Zeiss, Germany) or confocal fluorescence microscope (Olympus-FV1000).

[6] = biological target: CSF1R (Colony stimulating factor 1 receptor-FMS) (Homo sapiens, UniProt P07333); assay: Kinase panel assay, CSF1R; type: biochemical; conditions: above threshold
Procedure: as §1, §2

T1 sequence (P16591 whole entry, one chain of several): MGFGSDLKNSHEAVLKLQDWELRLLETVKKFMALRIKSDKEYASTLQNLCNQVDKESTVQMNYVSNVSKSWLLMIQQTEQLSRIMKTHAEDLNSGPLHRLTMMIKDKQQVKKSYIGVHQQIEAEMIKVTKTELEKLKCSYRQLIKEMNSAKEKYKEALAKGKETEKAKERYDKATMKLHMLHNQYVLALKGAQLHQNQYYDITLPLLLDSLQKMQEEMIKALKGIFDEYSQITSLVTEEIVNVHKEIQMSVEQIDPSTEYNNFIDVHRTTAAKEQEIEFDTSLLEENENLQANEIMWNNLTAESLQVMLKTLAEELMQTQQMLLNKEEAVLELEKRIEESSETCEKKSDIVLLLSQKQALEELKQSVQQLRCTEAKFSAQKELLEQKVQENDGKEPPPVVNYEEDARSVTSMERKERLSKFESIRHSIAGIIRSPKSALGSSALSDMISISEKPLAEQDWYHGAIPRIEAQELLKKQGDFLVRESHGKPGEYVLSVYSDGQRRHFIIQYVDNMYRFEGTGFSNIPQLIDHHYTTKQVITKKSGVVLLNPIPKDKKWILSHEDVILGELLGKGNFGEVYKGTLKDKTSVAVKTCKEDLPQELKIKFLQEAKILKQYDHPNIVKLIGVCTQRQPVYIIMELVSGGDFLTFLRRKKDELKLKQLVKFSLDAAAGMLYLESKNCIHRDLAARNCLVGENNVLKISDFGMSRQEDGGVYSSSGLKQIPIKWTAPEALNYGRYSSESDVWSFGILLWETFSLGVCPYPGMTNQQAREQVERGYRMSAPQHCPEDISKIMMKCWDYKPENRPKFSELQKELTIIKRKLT
Sequence of MINK1 (Q8N4C8 1-320 limits assumed): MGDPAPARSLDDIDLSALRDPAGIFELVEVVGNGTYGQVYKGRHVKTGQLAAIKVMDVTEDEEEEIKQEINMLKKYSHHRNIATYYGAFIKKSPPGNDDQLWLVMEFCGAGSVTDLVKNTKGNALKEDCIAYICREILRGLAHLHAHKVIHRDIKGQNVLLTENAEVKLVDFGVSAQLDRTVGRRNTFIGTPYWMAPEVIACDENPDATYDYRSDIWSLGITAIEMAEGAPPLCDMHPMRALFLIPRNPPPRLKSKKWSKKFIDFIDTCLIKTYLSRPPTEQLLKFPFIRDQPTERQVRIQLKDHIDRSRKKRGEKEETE
Sequence of CSF1R (Colony stimulating factor 1 receptor-FMS) (P07333 20-972): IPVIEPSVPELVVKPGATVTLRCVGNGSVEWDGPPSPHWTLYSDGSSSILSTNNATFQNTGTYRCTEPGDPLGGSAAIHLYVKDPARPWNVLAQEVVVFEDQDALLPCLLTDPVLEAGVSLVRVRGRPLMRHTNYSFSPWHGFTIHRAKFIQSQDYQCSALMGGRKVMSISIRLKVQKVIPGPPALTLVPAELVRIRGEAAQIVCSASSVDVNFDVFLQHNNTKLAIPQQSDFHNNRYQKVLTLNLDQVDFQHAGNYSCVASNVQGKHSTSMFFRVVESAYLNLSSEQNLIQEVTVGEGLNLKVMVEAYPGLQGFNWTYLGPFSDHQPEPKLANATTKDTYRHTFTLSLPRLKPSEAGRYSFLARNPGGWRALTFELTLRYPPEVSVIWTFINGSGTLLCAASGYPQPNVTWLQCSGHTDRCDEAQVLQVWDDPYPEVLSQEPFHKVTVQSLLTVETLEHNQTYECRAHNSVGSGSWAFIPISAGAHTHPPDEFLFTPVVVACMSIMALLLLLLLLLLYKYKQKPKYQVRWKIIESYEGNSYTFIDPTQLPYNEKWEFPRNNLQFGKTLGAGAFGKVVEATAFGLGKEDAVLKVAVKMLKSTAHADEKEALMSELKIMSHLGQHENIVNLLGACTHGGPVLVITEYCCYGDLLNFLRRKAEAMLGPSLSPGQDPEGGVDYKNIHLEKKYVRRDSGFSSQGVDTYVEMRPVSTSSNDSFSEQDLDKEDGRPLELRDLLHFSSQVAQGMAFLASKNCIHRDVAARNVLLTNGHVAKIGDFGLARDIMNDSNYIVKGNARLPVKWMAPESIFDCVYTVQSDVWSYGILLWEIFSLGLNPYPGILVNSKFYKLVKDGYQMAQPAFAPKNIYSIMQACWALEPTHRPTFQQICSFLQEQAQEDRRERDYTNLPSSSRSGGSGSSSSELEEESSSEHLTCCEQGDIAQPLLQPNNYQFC

## CC(C)c1ccc(-c2cn3nc(N4CCC(CN5CCN(C)CC5)CC4)sc3n2)cc1 [compound 0260, tartarate salt of 6-(4-isopropyl-phenyl)-2-{4-[(4-methyl-piperazin-1-yl)methyl]piperidin-1-yl}-imidazo [2,1-b][1,3,4]thiadiazole]
[1]; 24 h and 48 h, same conditions as SW620
  cell death / cytotoxic effect in normal fibroblasts: no death was seen; also recorded: Almost no cytotoxic effect
[1]; Hfb 72 h vs SW620
  sensitivity of normal cells lower than SW620: 50 fold
[1]; Homo sapiens, Fibroblast, Hfb, 0-20 μM, 72 h
  EC50: 20 µM
[2]; SW620, 4 h post treatment
  Complex I activity: inhibited
[2]; SW620, 16 h
  Complex I activity (remaining): around 55%
[2]; SW620, 22 hours
  Complex I activity (remaining): ~35%
Fer-PARP-1 complex
  association of Fer with PARP-1: dissociated Fer from PARP-1
MINK1
  kinase activity inhibition or ATP displacement: > 40%
Hfb
  Mitochondrial Membrane Potential (MMP) depolarization: absent
CC cells [3]; high glucose concentration
  additional acceleration of glycolytic rate: 30%
CC cells [3]; high glucose concentration, total
  elevation in the glycolytic rate: 65%
CC cells [3]; low glucose
  acceleration of glycolytic rate: 35%
HKII
  HKII level: down-regulation of HKII
[4]; ICR/CD-1, mouse, plasma, read-out: T1/2 in the blood
  half-life: 2.92 h
[4]
  volume of distribution: 4.244 L/kg
CC cells [5]
  Mitochondrial Membrane Potential (MMP): depolarization
MDA cells
  autophagy (LC3 immuno-staining): induction of autophagy was also observed
[6]
  kinase activity inhibition or ATP displacement: > 40%

From patent US20180071280A1, “MODULATORS OF CELL DEATH PROCESSES” (URIFER LTD., priority 2015, published 2018)
